PubChem BioAssay AID330 (DTP/NCI, 2004)
Values joined by “and” are separate entries in the source; they are usually repeats but may differ in a detail not shown here. Identical values can stand only once. Toxic doses and inconclusive results are not listed.

Tested on: P388 leukemia ip, CD2F1 mice, survival T/C
Experiment: NCI In Vivo Anticancer Drug Screen. Data for tumor model P388 Leukemia (intraperitoneal) in CD2F1 (CDF1) mice
Conditions: endpoint: median survival time, higher = longer survival
Summary of the method: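 Mice carrying the transplanted tumor received test compound or vehicle. Survival was recorded in each group, and the value is the treated-group measurement divided by that of the vehicle-treated control group.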

[1] = dose: 50.0 mg/kg/injection, schedule: Q01DX005 (ip), vehicle: saline with Tween-80
[2] = dose: 100.0 mg/kg/injection, schedule: Q01DX005 (ip), vehicle: saline with Tween-80
[3] = dose: 60.0 mg/kg/injection, schedule: Q01DX005 (ip), vehicle: saline with Tween-80
[4] = dose: 120.0 mg/kg/injection, schedule: Q01DX005 (ip), vehicle: saline with Tween-80
[5] = dose: 240.0 mg/kg/injection, schedule: Q01DX005 (ip), vehicle: saline with Tween-80
[6] = dose: 50.0 mg/kg/injection, schedule: Q01DX005 (ip), vehicle: Klucel (hydroxypropylcellulose) (HPC)
[7] = dose: 100.0 mg/kg/injection, schedule: Q01DX005 (ip), vehicle: Klucel (hydroxypropylcellulose) (HPC)
[8] = dose: 200.0 mg/kg/injection, schedule: Q01DX005 (ip), vehicle: Klucel (hydroxypropylcellulose) (HPC)
[9] = dose: 100.0 mg/kg/injection, schedule: Q01DX009 (ip), vehicle: other
[10] = dose: 200.0 mg/kg/injection, schedule: Q01DX009 (ip), vehicle: other

COC(=O)C1(C)Cc2cc(OC(C)=O)c(OC(C)=O)cc2N1 (centres undefined) was tested, and the T/C (dose: 25.0 mg/kg/injection, schedule: Q01DX001 (ip), vehicle: Klucel (hydroxypropylcellulose) (HPC)) was 109 % of control, the T/C (dose: 50.0 mg/kg/injection, schedule: Q01DX001 (ip), vehicle: Klucel (hydroxypropylcellulose) (HPC)) was 100 % of control and the T/C (dose: 100.0 mg/kg/injection, schedule: Q01DX001 (ip), vehicle: Klucel (hydroxypropylcellulose) (HPC)) was 109 % of control. The T/C (dose: 200.0 mg/kg/injection, schedule: Q01DX001 (ip), vehicle: Klucel (hydroxypropylcellulose) (HPC)) was 114 % of control.

For Cc1cc2c(C(C)C)c(O)c(O)c(C=Nc3ccc(C(=O)NCC(=O)O)cc3)c2c(O)c1-c1c(C)cc2c(C(C)C)c(O)c(O)c(C=Nc3ccc(C(=O)NCC(=O)O)cc3)c2c1O, the T/C [1] was 94 % of control and the T/C [2] was 100 % of control.

With CCOC(=O)/C(Nc1ccc(C(=O)OCC)cc1)=C1\COc2nc(N)[nH]c(=O)c2N1 the T/C [1] was 93 % of control, the T/C [2] was 91 % of control and the T/C (dose: 200.0 mg/kg/injection, schedule: Q01DX005 (ip), vehicle: saline with Tween-80) was 107 % of control.

COC(=O)N1C=CC2ON=C(OC)C2C1 (centres undefined) was tested, and the T/C [3] was 95 % of control, the T/C [4] was 100 % of control and the T/C [5] was 94 % of control.

For Cc1ccc(NC(=O)N2c3ccccc3SC23CCCCC3)c(C)c1, the T/C (dose: 50.0 mg/kg/injection, schedule: Q01DX009 (ip), vehicle: saline with Tween-80) was 102 % of control, the T/C (dose: 100.0 mg/kg/injection, schedule: Q01DX009 (ip), vehicle: saline with Tween-80) was 105 % of control and the T/C (dose: 200.0 mg/kg/injection, schedule: Q01DX009 (ip), vehicle: saline with Tween-80) was 103 % of control.

With C(=C\CN(Cc1ccccc1)Cc1ccccc1)/CN(Cc1ccccc1)Cc1ccccc1 the T/C (dose: 50.0 mg/kg/injection, schedule: Q04DX003 (ip), vehicle: Klucel (hydroxypropylcellulose) (HPC)) was 95 % of control, the T/C (dose: 100.0 mg/kg/injection, schedule: Q04DX003 (ip), vehicle: Klucel (hydroxypropylcellulose) (HPC)) was 90 % of control and the T/C (dose: 200.0 mg/kg/injection, schedule: Q04DX003 (ip), vehicle: Klucel (hydroxypropylcellulose) (HPC)) was 90 % of control.

For FC(F)(F)C1(C(F)(F)F)O[P+]2(OC(C(F)(F)F)(C(F)(F)F)c3ccccc32)c2ccccc21, the T/C [6] was 97 % of control, the T/C [7] was 105 % of control and the T/C [8] was 106 % of control.

In the case of O=P(N1CCCC1)(N1CC1)N1CC1, the T/C (dose: 6.25 mg/kg/injection, schedule: Q01DX009 (ip), vehicle: saline) is reported as 109 % of control, the T/C (dose: 8.3 mg/kg/injection, schedule: Q04DX003 (ip), vehicle: saline) is reported as 172 % of control and the T/C (dose: 12.5 mg/kg/injection, schedule: Q01DX009 (ip), vehicle: saline) is reported as 90 % of control. The T/C (dose: 12.5 mg/kg/injection, schedule: Q04DX003 (ip), vehicle: saline) was 209 % of control and the T/C (dose: 18.7 mg/kg/injection, schedule: Q04DX003 (ip), vehicle: saline) was 236 % of control.

With CCCCCCCC(=O)N/N=C/c1ccc(O)c(OCC)c1 the T/C [1] was 95 % of control and the T/C [2] was 90 % of control.

For O=C(N=[N+]([O-])c1ccccc1)c1ccccc1, the T/C (dose: 3.12 mg/kg/injection, schedule: Q01DX001 (ip), vehicle: saline with Tween-80) was 107 % of control, the T/C (dose: 6.25 mg/kg/injection, schedule: Q01DX001 (ip), vehicle: saline with Tween-80) was 110 % of control and the T/C (dose: 6.25 mg/kg/injection, schedule: Q04DX003 (ip), vehicle: saline with Tween-80) was 109 % of control and 118 % of control. For the same compound, the T/C (dose: 12.5 mg/kg/injection, schedule: Q01DX001 (ip), vehicle: saline with Tween-80) was 99 % of control, the T/C (dose: 12.5 mg/kg/injection, schedule: Q04DX003 (ip), vehicle: saline with Tween-80) was 114 % of control and 117 % of control and the T/C (dose: 25.0 mg/kg/injection, schedule: Q04DX003 (ip), vehicle: saline with Tween-80) was 89 % of control and 95 % of control.

In the case of Cn1c2ccc([N+](=O)[O-])cc2c(=O)c2c(O)cc3c(c21)C=CC(C)(C)O3, the T/C (dose: 25.0 mg/kg/injection, schedule: Q01DX001 (ip), vehicle: saline with Tween-80) is reported as 97 % of control, the T/C (dose: 50.0 mg/kg/injection, schedule: Q01DX001 (ip), vehicle: saline with Tween-80) is reported as 97 % of control and the T/C (dose: 100.0 mg/kg/injection, schedule: Q01DX001 (ip), vehicle: saline with Tween-80) is reported as 89 % of control and 95 % of control.

With Clc1ncnc2c1ncn2C1CCCCO1 (centres undefined) the T/C (dose: 50.0 mg/kg/injection, schedule: Q04DX003 (ip), vehicle: saline with Tween-80) was 104 % of control, the T/C [9] was 95 % of control and the T/C (dose: 100.0 mg/kg/injection, schedule: Q04DX003 (ip), vehicle: saline with Tween-80) was 100 % of control. The T/C [10] was 95 % of control, the T/C (dose: 200.0 mg/kg/injection, schedule: Q04DX003 (ip), vehicle: saline with Tween-80) was 100 % of control and the T/C (dose: 400.0 mg/kg/injection, schedule: Q04DX003 (ip), vehicle: saline with Tween-80) was 100 % of control.

CCN(CC)C(=O)C(C)C1=NS(=O)(=O)c2ccccc21 (centres undefined) was tested, and the T/C (dose: 75.0 mg/kg/injection, schedule: Q04DX003 (ip), vehicle: Klucel (hydroxypropylcellulose) (HPC)) was 101 % of control, the T/C (dose: 150.0 mg/kg/injection, schedule: Q04DX003 (ip), vehicle: Klucel (hydroxypropylcellulose) (HPC)) was 99 % of control and the T/C (dose: 300.0 mg/kg/injection, schedule: Q04DX003 (ip), vehicle: Klucel (hydroxypropylcellulose) (HPC)) was 100 % of control.

With CCC(=O)Nc1ccc(C(=O)C(C)=O)cc1 the T/C (dose: 8.0 mg/kg/injection, schedule: Q01DX009 (ip), vehicle: saline with Tween-80) was 104 % of control, the T/C (dose: 16.0 mg/kg/injection, schedule: Q01DX009 (ip), vehicle: saline with Tween-80) was 104 % of control and the T/C (dose: 32.0 mg/kg/injection, schedule: Q01DX009 (ip), vehicle: saline with Tween-80) was 99 % of control.

For CC(C)(C)NC(=O)C(F)(F)C(F)(F)C(F)(F)C(=O)NC(C)(C)C, the T/C (dose: 100.0 mg/kg/injection, schedule: Q04DX003 (ip), vehicle: saline) was 91 % of control, the T/C (dose: 200.0 mg/kg/injection, schedule: Q04DX003 (ip), vehicle: saline) was 100 % of control and the T/C (dose: 400.0 mg/kg/injection, schedule: Q04DX003 (ip), vehicle: saline) was 99 % of control.

With CCOC(=O)C1=C(Nc2ccc(F)cc2)C(=O)N(CC)C1 the T/C [3] was 100 % of control, the T/C [4] was 102 % of control and the T/C [5] was 93 % of control.

With CN1C2C=CC1c1c(C3=NC(C)(C)CO3)cccc12 (centres undefined) the T/C (dose: 50.0 mg/kg/injection, schedule: Q01DX005 (ip), vehicle: saline) was 98 % of control and the T/C (dose: 100.0 mg/kg/injection, schedule: Q01DX005 (ip), vehicle: saline) was 103 % of control.

In the case of O=C(C/[N+]([O-])=C/c1ccccc1)OCc1ccccc1, the T/C (dose: 12.5 mg/kg/injection, schedule: Q01DX009 (ip), vehicle: other) is reported as 112 % of control, the T/C (dose: 25.0 mg/kg/injection, schedule: Q01DX009 (ip), vehicle: other) is reported as 112 % of control and the T/C (dose: 50.0 mg/kg/injection, schedule: Q01DX009 (ip), vehicle: other) is reported as 95 % of control. The T/C [9] was 88 % of control and the T/C [10] was 104 % of control.

CNC(=S)N/N=C\C(C)=N/N1CCCCCC1 was tested, and the T/C (dose: 100.0 mg/kg/injection, schedule: Q04DX002 (ip), vehicle: saline) was 97 % of control, the T/C (dose: 200.0 mg/kg/injection, schedule: Q04DX002 (ip), vehicle: saline) was 101 % of control and the T/C (dose: 400.0 mg/kg/injection, schedule: Q04DX002 (ip), vehicle: saline) was 93 % of control.

With Fc1ccc2nc3ccccc3c(SCCCCCSc3c4ccccc4nc4ccc(F)cc34)c2c1 the T/C (dose: 60.0 mg/kg/injection, schedule: Q01DX005 (ip), vehicle: Klucel (hydroxypropylcellulose) (HPC)) was 94 % of control and the T/C (dose: 120.0 mg/kg/injection, schedule: Q01DX005 (ip), vehicle: Klucel (hydroxypropylcellulose) (HPC)) was 90 % of control.

CCOC(=O)CC(=O)c1ccc(Cl)cc1 was tested, and the T/C (dose: 25.0 mg/kg/injection, schedule: Q01DX009 (ip), vehicle: saline) was 100 % of control, the T/C (dose: 50.0 mg/kg/injection, schedule: Q01DX009 (ip), vehicle: saline) was 100 % of control and the T/C (dose: 100.0 mg/kg/injection, schedule: Q01DX009 (ip), vehicle: saline) was 104 % of control. The T/C (dose: 200.0 mg/kg/injection, schedule: Q01DX009 (ip), vehicle: saline) was 101 % of control.

With CC1CCC2=C(C1)c1ccc(O)cc1OC2(C)C (centres undefined) the T/C [6] was 100 % of control, the T/C [7] was 96 % of control and the T/C [8] was 93 % of control.
